# Results taken from patent US7629453B2, “NF-κB activating gene” (Asahi Kasei Pharma Corporation, priority 2000, dated 2009).
# Strand notation (5' to 3'): a small letter for the sugar, then the base; units joined by * are phosphorothioate-linked, units joined directly phosphodiester-linked; [ ] holds rarer units or linkages, { } end groups; capitals alone tell only the bases. Where a SMILES comes first, the peptide text is derived from it. The star is where a group is joined. Cbz = O=C(OCc1ccccc1)*; d = 2'-deoxy (DNA); r = 2'-OH (RNA)
# Experiments:
# Type in all cases: cell-based
# gene of SEQ ID NO:88 [1] = experiment: Expression inhibition of the gene of SEQ ID NO:88 by double stranded nucleic acid (NF-κB luciferase reporter, EBNA cells); conditions: for relative luciferase activity (%): 10 pmol per well, 24 hours, firefly standardized with Renilla, control without double stranded nucleic acid = 100%; for luciferase activity / expression of the protein of SEQ ID NO: 87 (in words): EBNA cells, Lipofectamine 2000, versus cells without double stranded nucleic acid
# Experimental: That is, using Lipofectamine 2000 (Invitrogen), an expression vector having the polynucleotide of SEQ ID NO:88, pNFkB-Luc, phRL-TK vector and double stranded nucleic acid (A) were co-transfected into EBNA cells, and after culturing, luciferase activity was measured.
# EBNA cells (Invitrogen) were inoculated on DMEM medium containing 5% FBS in a 96-well cell culture plate to a cell density of 1.2×10^4 cells/100 μl/well, and cultured for 24 hours at 37° C. in the presence of 5% CO2. Next, using Lipofectamine 2000 (Invitrogen), 50 ng of an expression vector having the polynucleotide of SEQ ID NO:88 and 50 ng of pNFkB-Luc (STRATAGENE) and 10 ng of phRL-TK vector (Promega Corporation) used as an internal standard, were co-transfected with double stranded nucleic acid 88-1 (10 pmol) prepared in (1) above into 1 well. After culturing for 24 hours at 37° C., firefly luciferase activity and Renilla reniformis luciferase activity were measured using a Dual-Luciferase Reporter Assay System (Promega Corporation). Further, each of 88-2 (10 pmol), 88-3 (10 pmol), 88-4 (10 pmol), 88-5 (10 pmol) or 88-6 (10 pmol) was co-transfected into 1 well in place of 88-1 (10 pmol), and luciferase activity was measured in the same manner. In Table 1, values for activity represent relative values when firefly luciferase activity in the control experiment (cells into which double stranded nucleic acid has not been introduced) is established as 100%. (It should be noted that values for firefly luciferase activity were standardized with values for Renilla reniformis luciferase activity used as an internal standard, before using these values in calculations.)
# gene of SEQ ID NO:88 [2] = experiment: as above; conditions: Lipofectamine 2000, versus cells without double stranded nucleic acid
# NF-κB activation = experiment: NF-κB reporter activity inhibition by proteasome inhibitor in 293-EBNA cells cotransfected with NF-κB activating protein expression vector and pNFκB-Luc; conditions: MG-132 0.1, 0.5, 1.0 and 10 μM added 1 hour after transfection; 293-EBNA cells with vector for protein of SEQ ID NO: 5, 9, 17 ... 178; 24 hours
# Experimental: 293-EBNA cells were seeded on 5% FBS containing DMEM medium in a 96-well cell culture plate to a final cell density of 1×10^4 cells/100 μl/well, and cultured for 24 hours at 37° C. in the presence of 5% CO2. Then, 50 ng of the expression vector comprising the gene encoding NF-κB activating protein of SEQ ID NO: 5, 9, 17, 21, 35, 37, 41, 53, 57, 63, 67, 71, 75, 81, 87, 91, 93, 97, 121, 123, 129, 154, 158, 162, 168, 170, 172, 176 or 178, and 50 ng of the reporter plasmid pNF κB-Luc were cotransfected into the cells in a well using FuGENE 6. After 1 hour, the proteasome inhibitor MG-132 (purchased form CALBIOCHEM) (Uehara T. et al., J. Biol. Chem. 274, p. 15875-15882 (1999); Wang X. C. et al., Invest. Ophathalmol. Vis. Sci. 40, p. 477-486) was added to the culture to final concentrations of 0.1 μM, 0.5 μM, 1.0 μM and 10 μM, respectively. After 24 hours of culture at 37° C., the reporter activity was measured using PIKKA GENE LT2.0.
Molecule,relative luciferase activity (%) (gene of SEQ ID NO:88 [1]),luciferase activity / expression of the protein of SEQ ID NO: 87 (in words) (gene of SEQ ID NO:88 [1]),other results
"88-5: double stranded nucleic acid annealed from oligonucleotides A5 (SEQ ID NO: 193) and B5 (SEQ ID NO: 194) (chain 1 GCCCUCAGAGUCCAGAAUCTT; chain 2 GAUUCUGGACUCUGAGGGCTT; siRNA; sugars from the 5' end r19 d2, backbone not given here)",5,exhibited inhibition of firefly luciferase activity,luciferase activity / expression of the protein of SEQ ID NO: 87 (in words) (gene of SEQ ID NO:88 [2]): similarly inhibited
88-3: double stranded nucleic acid annealed from oligonucleotides A3 (SEQ ID NO: 189) and B3 (SEQ ID NO: 190) (chain 1 rGrCrUrGrArArGrArArGrArGrGrUrGrUrUrCrCdTdT; chain 2 rGrGrArArCrArCrCrUrCrUrUrCrUrUrCrArGrCdTdT; siRNA),9,exhibited inhibition of firefly luciferase activity,luciferase activity / expression of the protein of SEQ ID NO: 87 (in words) (gene of SEQ ID NO:88 [2]; listed as (C)): similarly inhibited
88-2: double stranded nucleic acid annealed from oligonucleotides A2 (SEQ ID NO: 187) and B2 (SEQ ID NO: 188) (chain 1 rGrArArGrUrCrUrGrArArGrArUrCrUrArUrCrCdTdT; chain 2 rGrGrArUrArGrArUrCrUrUrCrArGrArCrUrUrCdTdT; siRNA),12,exhibited inhibition of firefly luciferase activity,luciferase activity / expression of the protein of SEQ ID NO: 87 (in words) (gene of SEQ ID NO:88 [2]; listed as (B)): similarly inhibited
"88-6: double stranded nucleic acid annealed from oligonucleotides A6 (SEQ ID NO: 195) and B6 (SEQ ID NO: 196) (chain 1 GAUGACUUUGGUAUCAAACTT; chain 2 GUUUGAUACCAAAGUCAUCTT; siRNA; sugars from the 5' end r19 d2, backbone not given here)",7,exhibited inhibition of firefly luciferase activity,luciferase activity / expression of the protein of SEQ ID NO: 87 (in words) (gene of SEQ ID NO:88 [2]; listed as (F)): similarly inhibited
"CC(C)C[C@@H](C=O)NC(=O)[C@H](CC(C)C)NC(=O)[C@H](CC(C)C)NC(=O)OCc1ccccc1 [MG132, MG-132] (Cbz-Leu-Leu-Leu-aldehyde)",,,expression of the reporter gene (NF-κB reporter activity) (NF-κB activation): inhibited the expression of the reporter gene
"88-1: double stranded nucleic acid annealed from oligonucleotides A1 (SEQ ID NO: 185) and B1 (SEQ ID NO: 186), targeting SEQ ID NO: 88 (chain 1 rGrUrCrCrArGrGrArUrArUrCrArUrGrArGrUrCdTdT; chain 2 rGrArCrUrCrArUrGrArUrArUrCrCrUrGrGrArCdTdT; siRNA)",18,exhibited inhibition of firefly luciferase activity,luciferase activity / expression of the protein of SEQ ID NO: 87 (in words) (gene of SEQ ID NO:88 [2]): markedly lower
88-4: double stranded nucleic acid annealed from oligonucleotides A4 (SEQ ID NO: 191) and B4 (SEQ ID NO: 192) (chain 1 rGrArUrGrArCrArCrArGrArUrGrArArGrCrCrCdTdT; chain 2 rGrGrGrCrUrUrCrArUrCrUrGrUrGrUrCrArUrCdTdT; siRNA),8,exhibited inhibition of firefly luciferase activity,luciferase activity / expression of the protein of SEQ ID NO: 87 (in words) (gene of SEQ ID NO:88 [2]; listed as (D)): similarly inhibited
